In the NIST ThermoML archive (doi:10.1021/acs.jced.6b00856):
± gives the expanded uncertainty stated by the source.

Test: mn = molality of the nth substance listed, in mol/kg
Settings: 101.3 kPa, Liquid; for viscosity: Capillary tube (Ostwald / Ubbelohde) method; for mass density: Pycnometric method

Compound `C1CNCCN1` [piperazine] + O has a viscosity (303.15 K, m1 = 0.66) of 0.987 ± 0.04 mPa·s, a viscosity (303.15 K, m1 = 1.1) of 1.169 ± 0.04 mPa·s and a viscosity (303.15 K, m1 = 1.7) of 1.456 ± 0.04 mPa·s. The mass density (303.15 K, m1 = 0.66) was 997.55 ± 0.27 kg/m3, the mass density (303.15 K, m1 = 1.1) was 999.58 ± 0.27 kg/m3 and the mass density (303.15 K, m1 = 1.7) was 1002.4 ± 0.3 kg/m3. For the same compound, the viscosity (313.15 K, m1 = 0.66) was 0.789 ± 0.039 mPa·s, the viscosity (313.15 K, m1 = 1.1) was 0.916 ± 0.04 mPa·s and the viscosity (313.15 K, m1 = 1.7) was 1.124 ± 0.04 mPa·s. The mass density (313.15 K, m1 = 0.66) was 994.45 ± 0.29 kg/m3, the mass density (313.15 K, m1 = 1.1) was 995.73 ± 0.29 kg/m3 and the mass density (313.15 K, m1 = 1.7) was 998.08 ± 0.3 kg/m3. It also gave a viscosity (323.15 K, m1 = 0.66) of 0.641 ± 0.039 mPa·s, a viscosity (323.15 K, m1 = 1.1) of 0.747 ± 0.039 mPa·s and a viscosity (323.15 K, m1 = 1.7) of 0.893 ± 0.039 mPa·s. It also gave a mass density (323.15 K, m1 = 0.66) of 989.89 ± 0.31 kg/m3, a mass density (323.15 K, m1 = 1.1) of 991.34 ± 0.31 kg/m3 and a mass density (323.15 K, m1 = 1.7) of 993.64 ± 0.32 kg/m3.
